# Measurements as given in PubChem BioAssay (NCI).
#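 Interpolation was linear, between the two tested concentrations surrounding the appropriate level; five concentrations were tested over 48 hours in 96-well plates. TGI: concentration producing complete growth inhibition.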
# Columns and labels:
# Assay in all cases: DTP human tumour cell line panel, 48 h
# COLO 205 colon = tested on: COLO 205 colon
# CCRF-CEM leukemia = tested on: CCRF-CEM leukemia
# OVCAR-8 ovarian = tested on: OVCAR-8 ovarian
# UACC-62 melanoma = tested on: UACC-62 melanoma
# SF-539 CNS = tested on: SF-539 CNS
# SN12C renal = tested on: SN12C renal
# SF-295 CNS = tested on: SF-295 CNS
# NCI-H23 lung = tested on: NCI-H23 lung
# SK-MEL-2 melanoma = tested on: SK-MEL-2 melanoma
# MALME-3M melanoma = tested on: MALME-3M melanoma
# HL-60(TB) leukemia = tested on: HL-60(TB) leukemia
# MDA-MB-231 breast = tested on: MDA-MB-231 breast
# MCF7 breast = tested on: MCF7 breast
# 786-0 renal = tested on: 786-0 renal
# SK-MEL-28 melanoma = tested on: SK-MEL-28 melanoma
# MOLT-4 leukemia = tested on: MOLT-4 leukemia
# KM12 colon = tested on: KM12 colon
# NCI-H226 lung = tested on: NCI-H226 lung
# HT29 colon = tested on: HT29 colon
# TK-10 renal = tested on: TK-10 renal
# SR leukemia = tested on: SR leukemia
# NCI-H522 lung = tested on: NCI-H522 lung
# MDA-MB-435 = tested on: MDA-MB-435
# M14 melanoma = tested on: M14 melanoma
# UACC-257 melanoma = tested on: UACC-257 melanoma
# HCT-15 colon = tested on: HCT-15 colon
# SF-268 CNS = tested on: SF-268 CNS
# UO-31 renal = tested on: UO-31 renal
# DU-145 prostate = tested on: DU-145 prostate
# ACHN renal = tested on: ACHN renal
# IGROV1 ovarian = tested on: IGROV1 ovarian
# T-47D breast = tested on: T-47D breast
# OVCAR-5 ovarian = tested on: OVCAR-5 ovarian
# HOP-92 NSCLC = tested on: HOP-92 NSCLC
# SNB-19 CNS = tested on: SNB-19 CNS
# OVCAR-3 ovarian = tested on: OVCAR-3 ovarian
# A549 NSCLC = tested on: A549 NSCLC
# HOP-62 NSCLC = tested on: HOP-62 NSCLC
# PC-3 prostate = tested on: PC-3 prostate
# SK-MEL-5 melanoma = tested on: SK-MEL-5 melanoma
# LOX IMVI melanoma = tested on: LOX IMVI melanoma
# HCT-116 colon = tested on: HCT-116 colon
# CAKI-1 renal = tested on: CAKI-1 renal
# NCI/ADR-RES ovarian = tested on: NCI/ADR-RES ovarian
# OVCAR-4 ovarian = tested on: OVCAR-4 ovarian
# SNB-75 CNS = tested on: SNB-75 CNS
# MDA-N = tested on: MDA-N
# HS 578T breast = tested on: HS 578T breast
# SW-620 colon = tested on: SW-620 colon
# RXF 393 renal = tested on: RXF 393 renal
# U251 CNS = tested on: U251 CNS
# BT-549 breast = tested on: BT-549 breast
# HCC-2998 colon = tested on: HCC-2998 colon
# SK-OV-3 ovarian = tested on: SK-OV-3 ovarian
# RPMI-8226 leukemia = tested on: RPMI-8226 leukemia
# EKVX NSCLC = tested on: EKVX NSCLC
# NCI-H460 lung = tested on: NCI-H460 lung
# A498 renal = tested on: A498 renal
# K-562 leukemia = tested on: K-562 leukemia
structure (smiles),measurement,setting,value
O=c1[nH]c2nc3ccccc3c(=O)n2/c1=C/c1ccc(O)cc1,TGI,COLO 205 colon,> 100 µM
same,TGI,CCRF-CEM leukemia,> 100 µM
same,TGI,OVCAR-8 ovarian,54.8 µM
same,TGI,UACC-62 melanoma,> 100 µM
same,TGI,SF-539 CNS,46.6 µM
same,TGI,SN12C renal,> 100 µM
same,TGI,SF-295 CNS,> 100 µM
same,TGI,NCI-H23 lung,> 100 µM
same,TGI,SK-MEL-2 melanoma,> 100 µM
same,TGI,MALME-3M melanoma,> 100 µM
same,TGI,HL-60(TB) leukemia,> 100 µM
same,TGI,MDA-MB-231 breast,> 100 µM
same,TGI,MCF7 breast,> 100 µM
same,TGI,786-0 renal,> 100 µM
same,TGI,SK-MEL-28 melanoma,> 100 µM
same,TGI,MOLT-4 leukemia,> 100 µM
same,TGI,KM12 colon,> 100 µM
same,TGI,NCI-H226 lung,> 100 µM
same,TGI,HT29 colon,72 µM
same,TGI,TK-10 renal,> 100 µM
same,TGI,SR leukemia,> 100 µM
same,TGI,NCI-H522 lung,> 100 µM
same,TGI,MDA-MB-435,69.8 µM
same,TGI,M14 melanoma,> 100 µM
same,TGI,UACC-257 melanoma,> 100 µM
same,TGI,HCT-15 colon,> 100 µM
same,TGI,SF-268 CNS,> 100 µM
same,TGI,UO-31 renal,> 100 µM
same,TGI,DU-145 prostate,> 100 µM
same,TGI,ACHN renal,> 100 µM
same,TGI,IGROV1 ovarian,> 100 µM
same,TGI,T-47D breast,> 100 µM
same,TGI,OVCAR-5 ovarian,> 100 µM
same,TGI,HOP-92 NSCLC,> 100 µM
same,TGI,SNB-19 CNS,51.3 µM
same,TGI,OVCAR-3 ovarian,> 100 µM
same,TGI,A549 NSCLC,> 100 µM
same,TGI,HOP-62 NSCLC,> 100 µM
same,TGI,PC-3 prostate,> 100 µM
same,TGI,SK-MEL-5 melanoma,> 100 µM
same,TGI,LOX IMVI melanoma,> 100 µM
same,TGI,HCT-116 colon,> 100 µM
same,TGI,CAKI-1 renal,> 100 µM
same,TGI,NCI/ADR-RES ovarian,> 100 µM
same,TGI,OVCAR-4 ovarian,> 100 µM
same,TGI,SNB-75 CNS,> 100 µM
same,TGI,MDA-N,> 100 µM
same,TGI,HS 578T breast,69.7 µM
same,TGI,SW-620 colon,56.4 µM
same,TGI,RXF 393 renal,> 100 µM
same,TGI,U251 CNS,83.6 µM
same,TGI,BT-549 breast,> 100 µM
same,TGI,HCC-2998 colon,69.9 µM
same,TGI,SK-OV-3 ovarian,> 100 µM
same,TGI,RPMI-8226 leukemia,53.2 µM
same,TGI,EKVX NSCLC,> 100 µM
COc1ncc(C=C(C#N)C#N)c(OC)n1,TGI,COLO 205 colon,> 100 µM
same,TGI,CCRF-CEM leukemia,32.6 µM
same,TGI,OVCAR-8 ovarian,62 µM
same,TGI,UACC-62 melanoma,> 100 µM
same,TGI,SF-539 CNS,> 100 µM
same,TGI,SN12C renal,74.8 µM
same,TGI,SF-295 CNS,> 100 µM
same,TGI,NCI-H23 lung,> 100 µM
same,TGI,SK-MEL-2 melanoma,> 100 µM
same,TGI,MALME-3M melanoma,> 100 µM
same,TGI,HL-60(TB) leukemia,49.7 µM
same,TGI,MDA-MB-231 breast,> 100 µM
same,TGI,MCF7 breast,> 100 µM
same,TGI,786-0 renal,42.4 µM
same,TGI,SK-MEL-28 melanoma,> 100 µM
same,TGI,MOLT-4 leukemia,> 100 µM
same,TGI,KM12 colon,> 100 µM
same,TGI,NCI-H226 lung,> 100 µM
same,TGI,HT29 colon,> 100 µM
same,TGI,TK-10 renal,> 100 µM
same,TGI,SR leukemia,53.5 µM
same,TGI,NCI-H522 lung,45.4 µM
same,TGI,MDA-MB-435,78.8 µM
same,TGI,M14 melanoma,40.9 µM
same,TGI,NCI-H460 lung,> 100 µM
same,TGI,UACC-257 melanoma,57.8 µM
same,TGI,HCT-15 colon,> 100 µM
same,TGI,SF-268 CNS,> 100 µM
same,TGI,UO-31 renal,56.8 µM
same,TGI,DU-145 prostate,> 100 µM
same,TGI,ACHN renal,> 100 µM
same,TGI,IGROV1 ovarian,> 100 µM
same,TGI,T-47D breast,> 100 µM
same,TGI,OVCAR-5 ovarian,> 100 µM
same,TGI,HOP-92 NSCLC,> 100 µM
same,TGI,SNB-19 CNS,> 100 µM
same,TGI,OVCAR-3 ovarian,> 100 µM
same,TGI,A549 NSCLC,> 100 µM
same,TGI,A498 renal,> 100 µM
same,TGI,HOP-62 NSCLC,> 100 µM
same,TGI,K-562 leukemia,> 100 µM
same,TGI,PC-3 prostate,> 100 µM
same,TGI,SK-MEL-5 melanoma,> 100 µM
same,TGI,LOX IMVI melanoma,> 100 µM
same,TGI,HCT-116 colon,74.9 µM
same,TGI,CAKI-1 renal,> 100 µM
same,TGI,NCI/ADR-RES ovarian,64.1 µM
same,TGI,OVCAR-4 ovarian,> 100 µM
same,TGI,SNB-75 CNS,> 100 µM
same,TGI,MDA-N,92.6 µM
same,TGI,HS 578T breast,> 100 µM
same,TGI,SW-620 colon,> 100 µM
same,TGI,RXF 393 renal,> 100 µM
same,TGI,U251 CNS,> 100 µM
same,TGI,BT-549 breast,> 100 µM
same,TGI,SK-OV-3 ovarian,> 100 µM
same,TGI,RPMI-8226 leukemia,86 µM
same,TGI,EKVX NSCLC,> 100 µM
CSc1nc(SC)c2c(CN=[N+]=[N-])c(Br)n(Cc3ccccc3)c2n1,TGI,COLO 205 colon,> 100 µM
same,TGI,CCRF-CEM leukemia,> 100 µM
same,TGI,OVCAR-8 ovarian,> 100 µM
same,TGI,UACC-62 melanoma,> 100 µM
same,TGI,SF-539 CNS,> 100 µM
same,TGI,SN12C renal,> 100 µM
same,TGI,SF-295 CNS,> 100 µM
same,TGI,NCI-H23 lung,> 100 µM
same,TGI,SK-MEL-2 melanoma,> 100 µM
same,TGI,MALME-3M melanoma,> 100 µM
same,TGI,HL-60(TB) leukemia,> 100 µM
same,TGI,MDA-MB-231 breast,> 100 µM
same,TGI,MCF7 breast,> 100 µM
same,TGI,786-0 renal,> 100 µM
same,TGI,SK-MEL-28 melanoma,> 100 µM
same,TGI,MOLT-4 leukemia,> 100 µM
same,TGI,KM12 colon,> 100 µM
same,TGI,NCI-H226 lung,> 100 µM
same,TGI,HT29 colon,> 100 µM
same,TGI,TK-10 renal,> 100 µM
same,TGI,SR leukemia,> 100 µM
same,TGI,NCI-H522 lung,> 100 µM
same,TGI,MDA-MB-435,> 100 µM
same,TGI,M14 melanoma,> 100 µM
same,TGI,NCI-H460 lung,> 100 µM
same,TGI,HCT-15 colon,> 100 µM
same,TGI,SF-268 CNS,> 100 µM
same,TGI,UO-31 renal,> 100 µM
same,TGI,DU-145 prostate,> 100 µM
same,TGI,ACHN renal,> 100 µM
same,TGI,IGROV1 ovarian,> 100 µM
same,TGI,T-47D breast,> 100 µM
same,TGI,OVCAR-5 ovarian,> 100 µM
same,TGI,HOP-92 NSCLC,83.8 µM
same,TGI,SNB-19 CNS,> 100 µM
same,TGI,OVCAR-3 ovarian,> 100 µM
same,TGI,A549 NSCLC,> 100 µM
same,TGI,A498 renal,> 100 µM
same,TGI,HOP-62 NSCLC,> 100 µM
same,TGI,PC-3 prostate,> 100 µM
same,TGI,SK-MEL-5 melanoma,> 100 µM
same,TGI,LOX IMVI melanoma,> 100 µM
same,TGI,HCT-116 colon,> 100 µM
same,TGI,CAKI-1 renal,> 100 µM
same,TGI,NCI/ADR-RES ovarian,> 100 µM
same,TGI,OVCAR-4 ovarian,> 100 µM
same,TGI,SNB-75 CNS,> 100 µM
same,TGI,MDA-N,> 100 µM
same,TGI,HS 578T breast,> 100 µM
same,TGI,SW-620 colon,> 100 µM
same,TGI,U251 CNS,> 100 µM
same,TGI,BT-549 breast,> 100 µM
same,TGI,HCC-2998 colon,> 100 µM
same,TGI,SK-OV-3 ovarian,> 100 µM
same,TGI,RPMI-8226 leukemia,> 100 µM
same,TGI,EKVX NSCLC,> 100 µM
